Reference: patent US20110112132A1, “MEANS FOR THE TREATMENT OF ACUTE AND CHRONIC DISORDERS OF CEREBRAL CIRCULATION, INCLUDING INSULT, BASED ON HYDROGENATED PYRIDO (4,3-B) INDOLES (VARIANTS), PHARMACOLOGICAL MEANS BASED THEREON AND METHOD FOR THE USE THEREOF” (Medivation Neurology, Inc., priority 2006, published 2011)
Where a name gives a salt, the structure may show the parent alone. Marks after values point to notes of the source that are not given here.

Key:
AMPA receptors = conditions: rat brain neurons; cited from earlier work
NMDA receptors = conditions: rat brain neurons; cited from earlier work
[1] = test system: rats with hemorrhagic insult; test: Intracerebral post-traumatic hematoma (hemorrhagic insult) model: death of animals; format: in vivo, rat; conditions: 0.1 mg/kg i.p.; entire period of observation
Description: (§1) The study was performed in accordance with the “Methodological instructions for the experimental study of preparations for the treatment of cerebral circulation and migraine,” in “Handbook on the experimental (preclinical) study of new pharmacological substances,” Meditsina, Moscow, 2005, pp. 332-338, as modified by A. N. Makarenko et al. (“Method for modeling local hemorrhage in various brain structures in experimental animals,” Zh. vyssh. nervn. deyat. (2002) 52(6):765-768).
The experiments were performed on cross-bred male white rats weighing 200-250 g, kept in a vivarium with free access to food (standard pelleted feed) and water, and with natural alternation of day and night. […]
The animals were divided into 4 groups: sham-operated, a group of animals with hemorrhagic insult, animals with hemorrhagic insult which received dimebon intraperitoneally at a dose of 0.1 mg/kg, and animals with hemorrhagic insult which received nimodipine intraperitoneally at a dose of 0.1 mg/kg. The effects of the substances were recorded 24 hours, and 3, 7 and 14 days after operation. […]
Rat deaths were recorded over the entire 14 day period of observation. […]

[2] = test system: rats with hemorrhagic insult; test: Intracerebral post-traumatic hematoma (hemorrhagic insult) model: neurological deficit, McGraw Stroke index; format: in vivo, rat
Description: as §1
The experiments were performed on cross-bred male white rats weighing 200-250 g, kept in a vivarium with free access to food (standard pelleted feed) and water, and with natural alternation of day and night. Using a special device (mandrin-knife) and stereotaxis, brain tissue of rats anesthetized with nembutal (40 mg/kg, i/m) was destroyed in the region of the capsule interna, with subsequent (after 2-3 minutes) introduction into the damage site of blood taken from under the rat's tongue (0.02-0.03 ml). Scalping and trepanning of the skull were performed on sham-operated animals.
The animals were divided into 4 groups: sham-operated, a group of animals with hemorrhagic insult, animals with hemorrhagic insult which received dimebon intraperitoneally at a dose of 0.1 mg/kg, and animals with hemorrhagic insult which received nimodipine intraperitoneally at a dose of 0.1 mg/kg. The effects of the substances were recorded 24 hours, and 3, 7 and 14 days after operation.
Dimebon and nimodipine were administered intraperitoneally to animals with insult in an identical dose of 0.1 mg/kg 3-3.5 hours after operation, and then daily for 14 days after operation. An equal volume of physiological saline was administered intraperitoneally to the control groups of animals at identical intervals. Each group consisted of 9-18 animals at the start of the experiment.
The neurological deficit in the animals was determined using the McGraw Stroke index as modified by I. V. Gannushkina (Functional angioarchitectonics of the brain (1977) (Moscow, Meditsina) p. 224). The severity of the condition was determined from the sum of the corresponding scores. The number of rats with mild symptoms up to 2.5 points on the Stroke-index scale (sluggish movements, limb weakness, unilateral hemiptosis, tremor, circular movements) and with severe manifestations of neurological impairment (from 3 to 10 points)—limb paresis, paralysis of lower limbs, lateral position, was noted.

[3] = test system: rats with cerebral ischemia induced by ligation of the carotid arteries; test: Rat brain ischemia by ligation of the carotid arteries: neurological deficit, McGraw Stroke index; format: in vivo; conditions: 0.1 mg/kg i.p.
Description: Rat brain ischemia, produced by irreversible occlusion of the carotid arteries, was performed in accordance with “Methodological instructions for the experimental study of preparations for the treatment of cerebral circulation and migraine,” in “Handbook on the experimental (preclinical) study of new pharmacological substances,” Meditsina, Moscow, 2005, pp. 332-338.
Experiments were performed on cross-bred male white rats weighing 200-250 g, anesthetized with chloral hydrate (350 mg/kg, i/p). Irreversible single-step bilateral ligation of the common carotid arteries was performed on the animals. In the group of sham-operated animals, the ligatures were applied to the vessels but were not tightened.
After completing the operation, the animals were divided randomly into groups: group one rats were given dimebon intraperitoneally at 0.1 mg/kg administered 30 minutes after the ligature was tied, then daily for 14 days after operation; group two rats were given nimodipine intraperitoneally at 0.1 mg/kg administered 30 minutes after the ligature was tied, then daily for 14 days after operation. Group one and group two animals were experiencing an acute cerebral circulation disturbance at the time of drug administration. Control group and sham-operated animals were given equivalent volumes of physiological saline (0.9% sodium chloride) at the same times.
Neurological deficit in animals with cerebral ischemia induced by ligation of the carotid arteries was determined using the McGraw Stroke index as modified by I. V. Gannushkina (Functional angioarchitectonics of the brain (1977) (Moscow, Meditsina) p. 224). The severity of the condition was determined from the sum of the corresponding scores. The number of rats with mild symptoms up to 2.5 points on the Stroke-index scale (sluggish movements, limb weakness, hemiptosis, tremor, circular movements) and with severe manifestations of neurological impairment (from 3 to 10 points)—limb paresis, paralysis of lower limbs, lateral position, was noted.

[4] = 24 hours after operation (hemorrhagic insult), 0.1 mg/kg i.p.
[5] = 14 days after operation (hemorrhagic insult), 0.1 mg/kg i.p. daily

| SMILES | Number of animals with circular movements [2, 4] | Number of animals with limb weakness [2, 4] | Number of animals with paresis of 1-4 limbs [2, 4] | Number of animals with sluggish, slow movements [2, 4] | Number of animals with circular movements [2, 5] | Number of animals with limb weakness [2, 5] | Number of animals with paresis of 1-4 limbs [2, 5] | Number of animals with sluggish, slow movements [2, 5] | Number of animals with bilateral hemiptosis ([3]; 1 day after ischemic insult) | Number of animals with limb weakness ([3]; 1 day after ischemic insult) | Number of animals with sluggish, slow movements ([3]; 1 day after ischemic insult) | Number of animals with unilateral hemiptosis ([3]; 1 day after ischemic insult) | Number of animals with bilateral hemiptosis ([3]; 3 days after ischemic insult) | Number of animals with limb weakness ([3]; 3 days after ischemic insult) | Number of animals with sluggish, slow movements ([3]; 3 days after ischemic insult) | Number of animals with unilateral hemiptosis ([3]; 3 days after ischemic insult) | Number of animals with bilateral hemiptosis ([3]; 7 days after ischemic insult) | Number of animals with limb weakness ([3]; 7 days after ischemic insult) | Number of animals with sluggish, slow movements ([3]; 7 days after ischemic insult) | Number of animals with unilateral hemiptosis ([3]; 7 days after ischemic insult) | further results |
| --- | --- | --- | --- | --- | --- | --- | --- | --- | --- | --- | --- | --- | --- | --- | --- | --- | --- | --- | --- | --- | --- |
| Cc1ccc2c(c1)c1c(n2CCc2ccc(C)nc2)CCN(C)C1 [dimebon, 2,8-dimethyl-5-[2-(6-methyl-pyridyl-3-)ethyl]2,3,4,5-tetrahydro-1H-pyrido[4,3-b]indole dihydrochloride] | 33% | 66% | 33% | 88% | 0% | 7% | 0% | 7% | 33.3* % | 16.7% | 33.3* % | 16.7% | 25.0* % | 16.7% | 33.3% | 0% | 9.1* % | 9.1% | 9.1* % | 0% | Effect on transmembrane currents induced by the activation of AMPA receptors, in words (AMPA receptors): potentiates the transmembrane currents; Effect on NMDA receptors, in words (NMDA receptors): blocks the NMDA receptors; Effect on death of animals after hemorrhagic insult, in words [1]: almost completely prevented the death of animals; Effect on number of animals with pareses after hemorrhagic insult, in words ([2]; 0.1 mg/kg i.p., first day of observation): almost halving the number of animals with pareses; Effect on neurological deficit in rats with ischemia, in words ([3]; first and particularly seventh day after operation): prevented the development of neurological deficit; Number of animals with bilateral hemiptosis ([3]; 14 days after ischemic insult): 0%; Number of animals with limb weakness ([3]; 14 days after ischemic insult): 0%; Number of animals with sluggish, slow movements ([3]; 14 days after ischemic insult): 0%; Number of animals with unilateral hemiptosis ([3]; 14 days after ischemic insult): 0%; Number of animals with unilateral ptosis ([3]; 14 days after ischemic insult): 0% |
| COCCOC(=O)C1=C(C)NC(C)=C(C(=O)OC(C)C)C1c1cccc([N+](=O)[O-])c1 (stereo not shown) [nimodipine, reference compound] | 25% | 50% | 25* % | 50% | 0% | 0% | 0* % | 16.6% | 50% | 20% | 50% | 20% | 20* % | 0% | 30% | 20% | 20* % | 10% | 0% | 0% | Number of animals with bilateral hemiptosis ([3]; 14 days after ischemic insult): 0%; Number of animals with limb weakness ([3]; 14 days after ischemic insult): 0%; Number of animals with sluggish, slow movements ([3]; 14 days after ischemic insult): 0%; Number of animals with unilateral hemiptosis ([3]; 14 days after ischemic insult): 0%; Number of animals with unilateral ptosis ([3]; 14 days after ischemic insult): 0% |
